{"source": "patent US9890195B2", "about": "“MK2 inhibitor compositions and methods to enhance neurite outgrowth, neuroprotection, and nerve regeneration” (Purdue Research Foundation, priority 2009, dated 2018)", "tested_on": "mixed cortical cultures comprising neurons, astrocytes, and microglia", "test": "Immunocytochemistry/cell imaging of mixed cortical cultures treated with MK2i and TNF-α", "type": "cell-based, Sprague-Dawley rat", "details": "for morphological effects on neurons, astrocytes, microglia (FIG. 3): no TNF-α", "experimental": "The effect of MK2i on neuronal cell death and microglical activation was investigated by treating 1-week old mixed cortical cultures comprising neurons, astrocytes, and microglia with the MK2i peptide […] [SEQ ID NO: 33]. Primary Cortical Cell Culture\nEmbryonic rat cortical tissue was obtained immediately following removal of embryos from the rat's abdomen. E17 Sprague-Dawley rat cortical tissue was placed in a 50 ml conical tube containing 5 ml of Solution 1 (NaCl 7.24 g/L; KCl 0.4 g/L; NaH2PO4 0.14 g/L; Glucose 2.61 g/L; Hepes 5.96 g/L; MgSO4 0.295 g/L; Bovine Serum Albumin 3 g/L). Under sterile conditions, 18 μl of trypsin solution (7.5 mg/ml in 0.9% saline) was added and tissue was passed through a 5-ml pipet several times to disassociate tissue. After the conical tube was placed in a 37° C. water bath for 20 minutes, 100 μl of trypsin inhibitor/DNAse solution (2.5 mg/ml trypsin inhibitor, 400 μg/ml DNase in 0.9% saline) was added to the tube and tissue was pipetted several times with a 5-ml pipet. Tissue was centrifuged at 1,000 rpm for 5 minutes at room temperature and supernatant was poured off. Cells were re-suspended in 16 ml of Hibernate E (BrainBits, Springfield, Ill.) and 100 μl of trypsin inhibitor/DNAse solution and pipetted up and down several times. Cells were filtered through a cell strainer and centrifuged at 1,400 rpm for 5 minutes at room temperature. Supernatant was poured off and cells were re-suspended in media. Primary cells were then plated in poly-D-lysine coated 96-well plates at a seeding density of 625,000 cells/cm^2 and incubated for 7-9 days at 37° C. After 7-9 days, cortical cells were treated with 5 ng/ml or 10 ng/ml of TNF-α to activate microglia. Cells then were treated with 0, 0.5, 1, or 3 mM MK2i peptide […] [SEQ ID NO: 33] for 4 hours, 8 hours, and 24 hours. After treatment, media was removed and stored at −20° C.\nIn preparation for staining mixed cortical cells, cell media was replaced with phosphate-buffered 4% formaldehyde solution for 5 minutes, followed by three washes using HBHS solution (HEPES-buffered Hank's saline containing 10 mg/L sodium azide, pH 7.4). Blocking solution, consisting of 10% normal goat serum in HBHS, then was applied for 30 minutes, followed by three washes with HBHS. Microglia, astrocytes, and neurons were labeled using antibodies against ionized calcium binding adaptor molecule 1 (Iba1, Wako), glial fibrillary acidic protein (GFAP, Millipore), and β-3-tubulin (β3tub, Covance), respectively. Antibodies were applied for 2 hours, at a dilution of 1:400 in HBHS. After two 10 minute washes and one 30 minute wash, secondary antibodies were applied. […]", "note": "Where no end group is shown, it is not given here.", "data": [{"substance": "YARAAARQARAKALARQLGVAA-NH2 [MK2i]", "values": [{"measurement": "suppression of TNF-α-induced neuronal cell damage (FIG. 4)", "setting": "5 ng/ml and 10 ng/ml TNF-α, 3 mM MK2i, which also resulted in neuronal cell damage", "result": "not maintained"}, {"measurement": "morphological effects on neurons, astrocytes, microglia (FIG. 3)", "setting": "0.5 mM and 1.0 mM MK2i (below 3 mM)", "result": "Minimal morphological effects"}, {"measurement": "astrocyte damage (FIG. 6)", "setting": "3 mM MK2i", "result": "damage to astrocytes"}, {"measurement": "morphological effects on neurons, astrocytes, microglia (FIG. 3)", "setting": "3 mM MK2i", "result": "increased neuronal and astrocytic cell damage, as well as microglial proliferation"}]}]}
